In PubChem BioAssay (NCI):
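Growth conditions: 96-well plates. Treatment: test compound, 48 hours, 5 concentrations. Analysis: linear interpolation between bracketing concentrations; unreached endpoints set to highest concentration. TGI: concentration producing complete growth inhibition.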

What was measured:
Assay in all cases: NCI tumour cell line growth inhibition, 48 h
[1] = test system: A498 renal
[2] = test system: SW-620 colon
[3] = test system: HCT-116 colon
[4] = test system: DMS 273 small cell lung
[5] = test system: HOP-62 NSCLC
[6] = test system: EKVX NSCLC
[7] = test system: HOP-18 NSCLC
[8] = test system: SNB-75 CNS
[9] = test system: K-562 leukemia
[10] = test system: COLO 205 colon
[11] = test system: OVCAR-4 ovarian
[12] = test system: M14 melanoma
[13] = test system: M19-MEL melanoma
[14] = test system: SNB-78 CNS
[15] = test system: OVCAR-3 ovarian
[16] = test system: 786-0 renal
[17] = test system: IGROV1 ovarian
[18] = test system: OVCAR-5 ovarian
[19] = test system: OVCAR-8 ovarian
[20] = test system: HCC-2998 colon
[21] = test system: HCT-15 colon
[22] = test system: ACHN renal
[23] = test system: HT29 colon
[24] = test system: DMS 114 small cell lung
[25] = test system: CAKI-1 renal
[26] = test system: UACC-257 melanoma
[27] = test system: SNB-19 CNS
[28] = test system: SK-MEL-28 melanoma
[29] = test system: RXF-631 renal
[30] = test system: SF-268 CNS
[31] = test system: MALME-3M melanoma
[32] = test system: SK-MEL-2 melanoma
[33] = test system: SK-OV-3 ovarian
[34] = test system: NCI-H23 lung
[35] = test system: SF-539 CNS
[36] = test system: NCI-H226 lung
[37] = test system: SF-295 CNS
[38] = test system: HL-60(TB) leukemia
[39] = test system: TK-10 renal
[40] = test system: KM12 colon
[41] = test system: RXF 393 renal
[42] = test system: SR leukemia
[43] = test system: CCRF-CEM leukemia
[44] = test system: KM20L2 colon
[45] = test system: DLD-1 colon
[46] = test system: SK-MEL-5 melanoma
[47] = test system: LOX IMVI melanoma
[48] = test system: XF 498 CNS
[49] = test system: MOLT-4 leukemia
[50] = test system: NCI-H522 lung
[51] = test system: UACC-62 melanoma
[52] = test system: SN12C renal
[53] = test system: LXFL 529 NSCLC
[54] = test system: UO-31 renal
[55] = test system: A549 NSCLC
[56] = test system: U251 CNS
[57] = test system: NCI-H460 lung

Measured: TGI

Cc1ccnc(NS(=O)(=O)c2ccc(NC3=CC(=O)C(=O)c4ccccc43)cc2)n1
> 100 µM: all assays above
